For 24 compounds, inhibition and IC50 results are on record in patent US8633204B2 (Pfizer Inc., priority 2006, dated 2014).

One assay has as its target PI3-Kα (Mus musculus (Mouse), UniProt P42337). Nature of the assay: PI3-Kα Biochemical Assay (fluorescence polarization kinase assay). The protocol: Compounds of the present invention were evaluated for potency against PI3-Kα using an in vitro kinase assay. PI3-Kα activity is measured in vitro by determining the level of phosphorylation of the substrate PI(4,5)P2. The formation of product PI(3,4,5)P3 is monitored by binding to the Grip1 PH domain in a ligand displacement fluorescence polarization (FP) assay, in which the TAMRA-labeled PI(3,4,5)P3 complexed with Grip1 PH domain is displaced by PI(3,4,5)P3 formed in the PI3-Kα reaction resulting in a decrease in FP signal. Mouse PI3-Kα P110 and P85 subunits were co-expressed in insect cells and co-purified to homogeneity. PI(4,5)P2 were obtained from Cayman. TAMRA-labeled PI(3,4,5)P3 were from Echelon, Grip1 PH domain from Dundee and other reagents were from Sigma.
All assays were performed in a Corning solid black 96-well half area plate using LJL Analyst (Molecular Devices) at room temperature. The assay buffer contained 50 mM HEPES, pH 7.4, 150 mM NaCl, 5 mM DTT, and 0.05% CHAPS. Dry powder PI(4,5)P2 was dissolved in 50 mM TRIS, pH 8 to make 1 mM stock solution. The PI(4,5)P2 stock solution was then diluted in the assay buffer to 60 μM, and sonicated for 30 sec before use. To the assay plate, the following reagents were added in sequence: 10 μL of 60 μM PI(4,5)P2, 5 μL of 4 nM PI3-Kα, 2 μL of compound in 25% DMSO, 3 μL of mixture containing 200 μM ATP and 33 mM MgCl2. The final volume for the reaction was 20 μL. The reaction mixture was incubated at room temperature for 35 min. The reaction was then stopped by 20 μL of 20 mM EDTA. […] The FP signal was allowed to develop for 40 min before reading on a LJL analyst at excitation 535 nm and emission 580 nm.
The percentage of inhibition was calculated based on the following equation % inhibition=[1−(FPcompound−FPmax)/(FPmin−FPmax)]×100, where FPcompound is the FP reading at a given compound concentration, FPmin is the FP signal of the PI3-Kα reaction in the absence of a compound, and FPmax is the background FP signal in the absence of PI3-Kα and a compound. The IC50 was determined by fitting the FP signal vs. compound concentration to a sigmoidal dose response equation using GraphPad Prism curve fitting program.

Assay [1] has as its system PI3-K in BT20 cells (phosphorylation of AKT at serine 473). Description: PI3-Kα Cellular Assay (AKT Ser473 phosphorylation ELISA in BT20 cells). It counts as cell-based, human. To be noted: Homo sapiens, BT-20, pAKT Ser473 ELISA, 1 hour incubation. Put shortly:
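Cells seeded overnight in 0.5% FBS, then exposed 1 h at 37 °C to an 11-concentration 1:3 dilution series, in duplicate.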

Sequence of PI3-Kα (P42337 whole entry, the tested form may be a part): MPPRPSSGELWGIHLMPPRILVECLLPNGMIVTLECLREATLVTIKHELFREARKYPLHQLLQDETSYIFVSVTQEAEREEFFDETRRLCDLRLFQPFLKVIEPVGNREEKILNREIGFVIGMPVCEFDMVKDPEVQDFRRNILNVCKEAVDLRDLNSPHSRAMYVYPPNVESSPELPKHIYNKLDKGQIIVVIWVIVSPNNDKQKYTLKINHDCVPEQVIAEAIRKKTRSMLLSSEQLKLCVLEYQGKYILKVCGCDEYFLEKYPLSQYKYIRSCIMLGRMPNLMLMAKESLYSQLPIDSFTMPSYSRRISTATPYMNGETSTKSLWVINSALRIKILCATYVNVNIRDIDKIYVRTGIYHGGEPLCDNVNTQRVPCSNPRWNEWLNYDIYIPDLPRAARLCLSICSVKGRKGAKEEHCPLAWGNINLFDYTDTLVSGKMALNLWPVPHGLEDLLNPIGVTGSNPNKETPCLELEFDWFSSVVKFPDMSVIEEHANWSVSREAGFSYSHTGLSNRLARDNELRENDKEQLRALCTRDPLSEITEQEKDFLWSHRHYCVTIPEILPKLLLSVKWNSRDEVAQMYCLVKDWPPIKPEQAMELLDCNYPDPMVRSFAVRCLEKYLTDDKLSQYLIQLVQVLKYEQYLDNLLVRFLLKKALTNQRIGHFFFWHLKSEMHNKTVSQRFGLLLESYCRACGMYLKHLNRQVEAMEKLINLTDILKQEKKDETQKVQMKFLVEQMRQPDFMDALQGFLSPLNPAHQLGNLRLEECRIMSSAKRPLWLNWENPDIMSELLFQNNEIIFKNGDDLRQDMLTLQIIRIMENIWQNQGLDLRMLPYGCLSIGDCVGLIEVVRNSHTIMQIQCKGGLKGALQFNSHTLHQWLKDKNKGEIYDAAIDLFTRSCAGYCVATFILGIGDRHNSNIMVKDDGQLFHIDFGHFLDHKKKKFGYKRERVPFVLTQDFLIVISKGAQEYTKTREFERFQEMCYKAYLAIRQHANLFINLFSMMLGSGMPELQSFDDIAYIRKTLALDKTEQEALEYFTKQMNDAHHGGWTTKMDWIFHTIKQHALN
Sequence of PI3-Kα (P26450 whole entry partner, the tested form may be a part): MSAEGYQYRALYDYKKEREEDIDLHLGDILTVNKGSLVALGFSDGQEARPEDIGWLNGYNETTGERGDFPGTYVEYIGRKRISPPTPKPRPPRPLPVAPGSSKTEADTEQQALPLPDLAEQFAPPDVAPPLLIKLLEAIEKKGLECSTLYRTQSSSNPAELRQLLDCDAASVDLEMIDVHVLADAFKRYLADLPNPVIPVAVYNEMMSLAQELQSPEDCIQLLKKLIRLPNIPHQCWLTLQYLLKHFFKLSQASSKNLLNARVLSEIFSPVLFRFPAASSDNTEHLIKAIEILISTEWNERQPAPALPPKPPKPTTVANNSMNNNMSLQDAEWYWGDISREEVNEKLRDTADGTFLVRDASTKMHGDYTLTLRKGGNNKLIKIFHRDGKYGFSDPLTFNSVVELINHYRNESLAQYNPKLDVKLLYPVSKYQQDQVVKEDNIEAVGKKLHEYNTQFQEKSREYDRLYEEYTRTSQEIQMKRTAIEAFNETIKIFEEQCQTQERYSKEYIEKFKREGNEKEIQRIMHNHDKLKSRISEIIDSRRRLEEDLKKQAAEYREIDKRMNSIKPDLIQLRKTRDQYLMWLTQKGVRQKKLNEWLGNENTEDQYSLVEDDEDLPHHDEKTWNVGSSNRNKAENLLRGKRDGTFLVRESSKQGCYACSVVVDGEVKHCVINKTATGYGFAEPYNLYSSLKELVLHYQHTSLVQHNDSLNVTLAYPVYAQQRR

As for `CCNc1nc(C)c2cc(CCC(=O)N(C)C)c(=O)n(C3CCCC3)c2n1` [Compound 121, 3-(8-Cyclopentyl-2-(ethylamino)-4-methyl-7-oxo-7,8-dihydropyrido[2,3-d]pyrimidin-6-yl)-N,N-dimethylpropanamide], the inhibition at 50 µM on PI3-Kα (at 50 μM) is 27%. Besides, the IC50 in assay [1] stood at 10000 nM.

Take `CNc1nc(C)c2cc(C(N)=O)c(=O)n(C3CCCC3)c2n1` [Compound 123, 8-Cyclopentyl-4-methyl-2-(methylamino)-7-oxo-7,8-dihydropyrido[2,3-d]pyrimidine-6-carboxamide]: the IC50 at PI3-Kα came out at 68 nM; in assay [1], 650 nM.

In the case of `CNc1nc(C)c2cc(-c3cn[nH]c3)c(=O)n(C3CCCC3)c2n1` [Compound 124, 8-cyclopentyl-4-methyl-2-(methylamino)-6-(1H-pyrazol-4-yl)pyrido[2,3-d]pyrimidin-7(8H)-one], the IC50 on PI3-Kα was 8 nM; in assay [1], 2.58 nM.

Turning to `COc1ncccc1-c1cc2c(C)nc(N)nc2n(C2CCCC2)c1=O` [Compound 126], the IC50 is 856 nM against PI3-Kα and 5480 nM in assay [1].

Turning to `Cc1nc(N)nc2c1cc(-c1cnc3[nH]ccc3c1)c(=O)n2C1CCCC1` [Compound 127, 2-amino-8-cyclopentyl-4-methyl-6-(1H-pyrrolo[2,3-b]pyridin-5-yl)pyrido[2,3-d]pyrimidin-7(8H)-one], the IC50 is 0.48 nM at PI3-Kα and 2.76 nM in assay [1].

With `CNc1nc(C)c2cc(-c3cccnc3OC)c(=O)n(C3CCCC3)c2n1` [Compound 128, 8-cyclopentyl-6-(2-methoxypyridin-3-yl)-4-methyl-2-(methylamino)pyrido[2,3-d]pyrimidin-7(8H)-one], the IC50 turned out to be 275 nM against PI3-Kα and 3530 nM in assay [1].

Regarding `CCNc1nc(C)c2cc(CCCO)c(=O)n(C3CCCC3)c2n1` [Compound 129, 8-Cyclopentyl-2-(ethylamino)-6-(3-hydroxypropyl)-4-methylpyrido[2,3-d]pyrimidin-7(8H)-one], the values for the IC50 (against PI3-Kα; in assay [1]) were 4 nM and 2750 nM, respectively.

Take `CCNc1nc(C)c2cc(CCC(=O)O)c(=O)n(C3CCCC3)c2n1` [Compound 130, 3-(8-Cyclopentyl-2-(ethylamino)-4-methyl-7-oxo-7,8-dihydropyrido[2,3-d]pyrimidin-6-yl)propanoic acid]: the results for the IC50 (on PI3-Kα; in assay [1]) were 54 nM and 10000 nM, respectively.

With `CCNc1nc(C)c2cc(-c3cccnc3N)c(=O)n(C3CCCC3)c2n1` [Compound 131, 6-(2-aminopyridin-3-yl)-8-cyclopentyl-2-(ethylamino)-4-methylpyrido[2,3-d]pyrimidin-7(8H)-one], the IC50 is 3400 nM against PI3-Kα and 7980 nM in assay [1].

Regarding `CCNc1nc(C)c2cc(CCC(=O)OCC)c(=O)n(C3CCCC3)c2n1` [Compound 132, Ethyl 3-(8-cyclopentyl-2-(ethylamino)-4-methyl-7-oxo-7,8-dihydropyrido[2,3-d]pyrimidin-6-yl)propanoate], the IC50 was determined as 5500 nM on PI3-Kα and 10000 nM in assay [1].

On to `CNc1nc(C)c2cc(C#N)c(=O)n(C3CCCC3)c2n1` [Compound 133, 2-Methylamino-6-carbonitrile-8-cyclopentyl-4-methylpyrido[2,3-d]pyrimidin-7(8H)-one], for which the results for the IC50 (at PI3-Kα; in assay [1]) were 60 nM and 603 nM, respectively.

For `CNc1nc(C)c2cc(-c3ncccc3F)c(=O)n(C3CCCC3)c2n1` [Compound 134, 8-cyclopentyl-6-(3-fluoropyridin-2-yl)-4-methyl-2-(methylamino)pyrido[2,3-d]pyrimidin-7(8H)-one], the results for the IC50 (against PI3-Kα; in assay [1]) were 2100 nM and 8300 nM, respectively.

For the compound `CCNc1nc(C)c2cc(-c3cnc4[nH]ccc4c3)c(=O)n(C3CCCC3)c2n1` [Compound 135, 8-cyclopentyl-2-(ethylamino)-4-methyl-6-(1H-pyrrolo[2,3-b]pyridin-5-yl)pyrido[2,3-d]pyrimidin-7(8H)-one], the IC50 is 1.77 nM against PI3-Kα and 46.1 nM in assay [1].

Take `COc1cc(-c2cc3c(C)nc(N)nc3n(C3CCCC3)c2=O)ccc1O` [Compound 137, 2-amino-8-cyclopentyl-6-(4-hydroxy-3-methoxyphenyl)-4-methylpyrido[2,3-d]pyrimidin-7(8H)-one]: the IC50 on PI3-Kα came to 0.989 nM; in assay [1], 19 nM.

In the case of `CNc1nc(C)c2cc(-c3ccc(Cl)nc3)c(=O)n(C3CCCC3)c2n1` [Compound 138, 6-(6-chloropyridin-3-yl)-8-cyclopentyl-4-methyl-2-(methylamino)pyrido[2,3-d]pyrimidin-7(8H)-one], the half-inhibitory concentration (IC50) worked out at 29.7 nM against PI3-Kα and 146 nM in assay [1].

In the case of `CCNc1nc(C)c2cc(-c3cccc(OC)c3)c(=O)n(C3CCCC3)c2n1` [Compound 142, 8-cyclopentyl-2-(ethylamino)-6-(3-methoxyphenyl)-4-methylpyrido[2,3-d]pyrimidin-7(8H)-one], the IC50 against PI3-Kα was 792 nM; in assay [1], 1390 nM.

Regarding `CNc1nc(C)c2cc(-c3cccc(OC)c3)c(=O)n(C3CCCC3)c2n1` [Compound 143, 8-cyclopentyl-6-(3-methoxyphenyl)-4-methyl-2-(methylamino)pyrido[2,3-d]pyrimidin-7(8H)-one], the values for the IC50 (on PI3-Kα; in assay [1]) were 244 nM and 669 nM, respectively.

In the case of `COc1cccc(-c2cc3c(C)nc(N)nc3n(C3CCCC3)c2=O)c1` [Compound 145, 2-amino-8-cyclopentyl-6-(3-methoxyphenyl)-4-methylpyrido[2,3-d]pyrimidin-7(8H)-one], the IC50 against PI3-Kα turned out to be 168 nM; in assay [1] it was 622 nM.

Regarding `CNc1nc(C)c2cc(-c3cccc(O)c3)c(=O)n(C3CCCC3)c2n1` [Compound 146, 8-cyclopentyl-6-(3-hydroxyphenyl)-4-methyl-2-(methylamino)pyrido[2,3-d]pyrimidin-7(8H)-one], the IC50 stood at 0.731 nM at PI3-Kα and 1.76 nM in assay [1].

As to `Cc1nc(N)nc2c1cc(-c1cccc(O)c1)c(=O)n2C1CCCC1` [Compound 147, 2-Amino-8-cyclopentyl-6-(3-hydroxyphenyl)-4-methylpyrido[2,3-d]pyrimidin-7(8H)-one], the figures for the IC50 (against PI3-Kα; in assay [1]) were 0.524 nM and 4.84 nM, respectively.

Turning to `CNc1nc(C)c2cc(-c3cccc(CO)c3)c(=O)n(C3CCCC3)c2n1` [Compound 148, 8-Cyclopentyl-6-(3-(hydroxymethyl)phenyl)-4-methyl-2-(methylamino)pyrido[2,3-d]pyrimidin-7(8H)-one], the IC50 stood at 4.78 nM against PI3-Kα and 14.7 nM in assay [1].

On to `COc1ccc(Cn2c(=O)c(-c3ccccc3)cc3c(C)nc(N)nc32)cc1` [Compound 149, 8-(4-Methoxybenzyl)-2-amino-4-methyl-6-phenylpyrido[2,3-d]pyrimidin-7(8H)-one], for which the IC50 was 310 nM against PI3-Kα and greater than 10000 nM in assay [1].

With `Cc1nc(N)nc2c1cc(-c1ccccc1)c(=O)n2Cc1ccc(Cl)cc1` [Compound 150, 8-(4-Chlorobenzyl)-2-amino-4-methyl-6-phenylpyrido[2,3-d]pyrimidin-7(8H)-one], the IC50 against PI3-Kα is 1400 nM; in assay [1], greater than 10000 nM.

As to `Cc1nc(N)nc2c1cc(-c1ccncc1)c(=O)n2Cc1ccc(Cl)cc1` [Compound 151, 8-(4-Chlorobenzyl)-2-amino-4-methyl-6-(pyridin-4-yl)pyrido[2,3-d]pyrimidin-7(8H)-one], the IC50 was 4900 nM against PI3-Kα and greater than 10000 nM in assay [1].
